“Also recorded” adds a separate entry of the source.
Key:
[1] = oral bioavailability in mice; details: mouse, in vivo
Male C57BL/6J mice [2] = experiment: naloxone-precipitated morphine withdrawal symptoms; assay type: in vivo, mouse; details: 10 mg/kg i.p. 10 min before naloxone 1 mg/kg
From the text: (§1) Animals: Male C57BL/6J mice (8 weeks old, Jackson laboratories) were kept in a temperature and humidity-controlled environment and maintained in a 12:12 hr light/dark cycle (lights on at 7:00 AM). Mice were singly-housed for all the studies due to increased aggression following opioid administration and were randomly assigned to treatment groups.
(§2) Drugs: (2R,6R)-HNK hydrochloride was synthesized and characterized. Absolute and relative stereochemistry for (2R,6R)-HNK was confirmed by small molecule x-ray crystallography. For the intraperitoneal injections, drugs were dissolved in 0.9% saline and given in a volume of 5 ml/kg.
Precipitated morphine withdrawal symptoms: Mice were given a single injection of saline or morphine (10 mg/kg) in their home cages for 4 days. On Day 5, 1 hr and 50 min after their last saline or morphine injection, mice were given a single injection of saline or (2R,6R)-HNK (10 mg/kg) and 10 min later were given another injection of either saline or the opioid receptor antagonist naloxone (1 mg/kg, i.p.). The mice were immediately placed in plexiglass cylinders and their behaviors were monitored and live-scored for 25 min by an experimenter blind to any treatment conditions. Behaviors that were scored included: number of jumps (escape behavior), number of paw tremors, and occurrence (1 point) or not in each 5-min interval for the following symptoms: stereotypic sniffing, stereotypic rearing, eye ptosis, piloerection, head nodding and swallowing (FIGS. 9A-9H). An average score for each animal was given after analyzing all the withdrawal symptoms (FIG. 10).

Male C57BL/6J mice [3] = experiment: sub-effective dose morphine conditioned-place preference after chronic social defeat stress; assay type: in vivo, mouse; details: single 10 mg/kg i.p. before conditioning, morphine 0.25 mg/kg
From the text: as §1, §2
Social defeats: Socially defeated mice underwent a 10-day chronic social defeat stress paradigm. […]
Social interaction test: Following the social defeats, on day 11, test mice were screened for susceptibility in a social interaction/avoidance choice test. […] The time spent interacting (nose within close proximity of the cage) with the “stranger” mouse versus the empty cage was analyzed using TopScan video tracking software (CleverSys, Reston, Virginia). […]
Sucrose preference: Following the social interaction test, mice were assessed for sucrose preference in their home cages. […] Sucrose preference was measured (day 12) and were assigned to two groups: resilient (sucrose preference >70%) and susceptible (sucrose preference <55%). […]

N[C@@]1(c2ccccc2Cl)CCC[C@@H](O)C1=O [(2R,6R)-HNK, (2R,6R)-hydroxynorketamine]
bioavailability [1]: ~50% | average precipitated withdrawal symptoms of morphine (Male C57BL/6J mice [2]): overall reduction | escape-related jumping behavior (Male C57BL/6J mice [2]): increasing the escape-related jumping behavior | paw tremors (Male C57BL/6J mice [2]): decreased paw tremors | somatic symptoms following naloxone-precipitated morphine withdrawal (Male C57BL/6J mice [2]): decreases somatic symptoms | morphine-induced place preference (conditioning to sub-effective dose of morphine) (Male C57BL/6J mice [3]; stress susceptible mice): prevents conditioning; also recorded: prevented morphine-induced place preference | morphine-induced place preference (conditioning to sub-effective dose of morphine) (Male C57BL/6J mice [3]; stress-resilient mice): no significant effect

From patent US20230331655A1, “HYDROXYN[…] AND METHODS OF USE THEREOF” (UNIVERSITY OF MARYLAND, BALTIMORE, priority 2020, published 2023)
